Source: article PMC3934494 (Chemistry & biology, 2013)
pEC50, pKi: −log10 of the molar value. Like-named read-outs stand apart in the source and are kept apart here.

Key:
Microsomal stability [1] = assay type: in vitro ADME; details: human microsomes
Microsomal stability [2] = assay type: in vitro ADME; details: rat microsomes
WT clade B virus = experiment: PhenoSense HIV antiviral assay; assay type: cell-based; details: for EC50: WT clade B virus
[3] = tested on: 12 patient-derived drug resistant viruses; experiment: PhenoSense HIV antiviral assay; assay type: cell-based
[4] = biological target: HIV-1 protease variant M3: I50V/A71V (Human immunodeficiency virus type 1 group M subtype B, UniProt P04585, A559V/I538V); experiment: FRET-based enzymatic assay, enzyme inhibition constants; assay type: biochemical; details: M3 versus WT protease
WT HIV-1 protease = WT HIV-1 protease (Human immunodeficiency virus type 1 group M subtype B, UniProt P04585); details: FDA-approved drugs, ref Nalam, et al., 2010; cited from earlier work

SMILES	Microsomal Stability (Avg. % Fraction Remaining) at 30 Minutes Human (Microsomal stability [1]; RTV +) [%]	Microsomal Stability (Avg. % Fraction Remaining) at 30 Minutes Human (Microsomal stability [1]; RTV −) [%]	Microsomal Stability (Avg. % Fraction Remaining) at 60 Minutes Human (Microsomal stability [1]; RTV +) [%]	Microsomal Stability (Avg. % Fraction Remaining) at 60 Minutes Human (Microsomal stability [1]; RTV −) [%]	Microsomal CLint Human (Microsomal stability [1]; RTV +) [μL min^-1 mg^1]	Microsomal T1/2 Human (Microsomal stability [1]; RTV +) [min]	Microsomal CLint Human (Microsomal stability [1]; RTV −) [μL min^-1 mg^1]	Microsomal T1/2 Human (Microsomal stability [1]; RTV −) [min]	Microsomal Stability (Avg. % Fraction Remaining) at 30 Minutes Rat (Microsomal stability [2]; RTV +) [%]	Microsomal Stability (Avg. % Fraction Remaining) at 30 Minutes Rat (Microsomal stability [2]; RTV −) [%]	Microsomal Stability (Avg. % Fraction Remaining) at 60 Minutes Rat (Microsomal stability [2]; RTV +) [%]	Microsomal Stability (Avg. % Fraction Remaining) at 60 Minutes Rat (Microsomal stability [2]; RTV −) [%]	Microsomal CLint Rat (Microsomal stability [2]; RTV +) [μL min^-1 mg^1]	Microsomal T1/2 Rat (Microsomal stability [2]; RTV +) [min]	Microsomal CLint Rat (Microsomal stability [2]; RTV −) [μL min^-1 mg^1]	Microsomal T1/2 Rat (Microsomal stability [2]; RTV −) [min]	EC50 (WT clade B virus)	also measured
CCC(CC)CN(C[C@@H](O)[C@H](Cc1ccccc1)NC(=O)O[C@H]1CO[C@H]2OCC[C@H]21)S(=O)(=O)c1ccc(CO)cc1 [11c]	64	0	69	0	26	81	829	3	79	0	57	0	27	78	907	2		
CC[C@H](C)CN(C[C@@H](O)[C@H](Cc1ccccc1)NC(=O)O[C@H]1CO[C@H]2OCC[C@H]21)S(=O)(=O)c1ccc(OC)cc1 [10b]	79	0	68	0	19	110	776	3	0	0	0	0	518	4	885	2	more potent	pEC50 ([3]; read-out: average EC50, average against 12 different drug resistant strains): 8.88
CC[C@H](C)CN(C[C@@H](O)[C@H](Cc1ccccc1)NC(=O)O[C@H]1CO[C@H]2OCC[C@H]21)S(=O)(=O)c1ccc(N)cc1 [10a]	81	42	66	19	21	99	81	26	51	24	35	9	67	31	129	16		
CCC(CC)CN(C[C@@H](O)[C@H](Cc1ccccc1)NC(=O)O[C@H]1CO[C@H]2OCC[C@H]21)S(=O)(=O)c1ccc(OC)cc1 [11b]	75	0	66	0	23	90	844	2	50	18	20	19	74	28	150	14	more potent	
CC(C)CN(C[C@@H](O)[C@H](Cc1ccccc1)NC(=O)O[C@H]1CO[C@H]2OCC[C@H]21)S(=O)(=O)c1ccc(N)cc1 [DRV, Darunavir]																		decrease in M3 susceptibility compared to WT protease [4]: 50 fold; pEC50 (WT clade B virus): 9.40; pEC50 ([3]; Human immunodeficiency virus 1, read-out: average EC50): 8.22; antiviral potency ([3]; MDR strains with the I50V protease mutation): loses significant potency
CCC(CC)CN(C[C@@H](O)[C@H](Cc1ccccc1)NC(=O)O[C@H]1CO[C@H]2OCC[C@H]21)S(=O)(=O)c1ccc2c(c1)OCO2 [11d]	55	0	46	0	46	45	617	3	21	0	4	0	156	13	712	3		
CC[C@H](C)CN(C[C@@H](O)[C@H](Cc1ccccc1)NC(=O)O[C@H]1CO[C@H]2OCC[C@H]21)S(=O)(=O)c1ccc(CO)cc1 [10c]	93	0	89	0	8	>180	590	4	45	0	22	0	79	26	664	3		
CC[C@H](C)CN(C[C@@H](O)[C@H](Cc1ccccc1)NC(=O)O[C@H]1CO[C@H]2OCC[C@H]21)S(=O)(=O)c1ccc2c(c1)OCO2 [10d]	80	9	60	4	24	85	232	9	0	0	0	0	771	3	987	2	more potent	
Cc1cccc(C)c1OCC(=O)N[C@@H](Cc1ccccc1)[C@@H](O)C[C@H](Cc1ccccc1)NC(=O)[C@H](C(C)C)N1CCCNC1=O [LPV]																		pKi (WT HIV-1 protease): 11.30
